Like-named read-outs stand apart in the source and are kept apart here. Values belong to the molecule of their own block, whether it stands above or below them.
Molecular target: T1, Autotaxin (Homo sapiens, UniProt Q13822)
T1 construct: from tissue; host or cells: pooled human plasma
Assay: LPA formation in pooled human plasma (ex vivo autotaxin inhibition)
Type: biochemical
Conditions: 2 hours incubation
Experimental: Autotaxin is a plasma phosphodiesterase that converts lysophosphatidylcholine (LPC) into lysophosphatidic acid (LPA), therefore LPA formation was used to evaluate the potency of autotaxin inhibitors. The potency of compound was evaluated ex vivo in pooled human plasma.
Various concentrations of compound were incubated with plasma for 2 hours, and the LPA 18:2 and 20:4 concentration was measured by LC/MS/MS. To determine the LPA18:2 or 20:4 concentration in study plasma, a 10× calibration standard of LPA 18:2 or 20:4 were prepared by serial dilution in butyl alcohol: 20000, 10000, 5000, 2000, 1000, 500, 200, 100, 50, 20, and 10 ng/mL. 3 μL of calibration standard solution was added into 27.0 μL of blank plasma in 1.5-mL microcentrifuge tubes to generate 1× calibration standards. The 30.0 μL of standards or study plasma was added into 1.5-mL microcentrifuge tubes. 200 μL of butyl alcohol (containing 25.0 ng/mL LPA17:0 for internal control) was added into each 1.5-mL microcentrifuge tube containing study plasma or calibration standards. After vortexing for 1 minute and centrifuging at 10000 rpm for 10 min, 180 μL of supernatant was transferred into a 96-well plate and the LPA18:2 concentration in the plasma was quantitated using LC/MS/MS together with standards. Briefly, 8 μL of the solutions were injected for LC-MS/MS analysis using an ACQUITY UPLC BEH C18 column (2.1×50 mm, 1.7 μm) with mobile phase A [20 mM NH4OAC in water (0.1% FA)] and phase B [5 mM NH4OAC in water/0.2% FA in ACN=5:95]. Mass spectrometer parameters optimization for LPA18:2 were performed by Deprotonated molecular ion at m/z 433.2 ([M−H]^−) for LPA18:2, 457.2 for LPA20:4 and abundant product ion at m/z 152.8 for both LPA18:2 and LPA20:4 were obtained. Quantitative data were acquired in multiple reaction monitoring (MRM) negative electrospray ionization mode
The inhibition rate of LPA formation was determined by comparing the levels of LPA in treated and non-treated plasma. The data was plotted against the corresponding concentration of compound and the IC50 was calculated through non-linear regression fitting.

[1] = LPA 18:2 by LC/MS/MS, read-out: LPA formation (18:2) (IC50)
[2] = LPA 20:4 by LC/MS/MS, read-out: LPA formation (20:4) (IC50)

- IC50 [1]: ≤ 100 nM
- IC50 [2]: ≤ 100 nM
Compound: [2H]c1cc(N2CCN(CC(=O)N3CC(O)C3)CC2)cc2c(N(C)c3nc(-c4ccc(F)cc4)c(C#N)s3)c(CC)nn12 [Example 19, 2-((2-ethyl-5-(4-(2-(3-hydroxyazetidin-1-yl)-2-oxoethyl)piperazin-1-yl)pyrazolo[1,5-a]pyridin-3-yl-7-d)(methyl)amino)-4-(4-fluorophenyl)thiazole-5-carbonitrile]

- IC50 [1]: 100 to 500 nM
- IC50 [2]: 100 to 500 nM
Compound: CCc1nn2c(C)cc(N3CCC4(CN(C(=O)CO)C4)C3)cc2c1N(C)c1nc(-c2ccc(F)cc2)c(C#N)s1 [Example 52, 2-((2-ethyl-5-(2-(2-hydroxyacetyl)-2,6-diazaspiro[3.4]octan-6-yl)-7-methylpyrazolo[1,5-a]pyridin-3-yl)(methyl)amino)-4-(4-fluorophenyl)thiazole-5-carbonitrile]

- IC50 [1]: ≤ 100 nM
- IC50 [2]: ≤ 100 nM
Compound: CCc1nn2c(C)cc(N3CC4(CCN(C(=O)C5CCOCC5)C4)C3)cc2c1N(C)c1nc(-c2ccc(F)cc2)c(C#N)s1 [Example 44, 2-((2-ethyl-7-methyl-5-(6-(tetrahydro-2H-pyran-4-carbonyl)-2,6-diazaspiro[3.4]octan-2-yl)pyrazolo[1,5-a]pyridin-3-yl)(methyl)amino)-4-(4-fluorophenyl)thiazole-5-carbonitrile]

Continued, molecule first:

Compound: CCc1nn2c(C)cc(N3CC4(CN(C(=O)C5CCOCC5)C4)C3)cc2c1N(C)c1nc(-c2ccc(F)cc2)c(C#N)s1 [Example 41, 2-((2-ethyl-7-methyl-5-(6-(tetrahydro-2H-pyran-4-carbonyl)-2,6-diazaspiro[3.3]heptan-2-yl)pyrazolo[1,5-a]pyridin-3-yl)(methyl)amino)-4-(4-fluorophenyl)thiazole-5-carbonitrile]
- IC50 [1]: ≤ 100 nM
- IC50 [2]: ≤ 100 nM

Compound: CCc1nn2cc(C)c(N3CC4(CN(C(=O)C(C)(C)O)C4)C3)cc2c1N(C)c1nc(-c2ccc(F)cc2)c(C#N)s1 [Example 98, 2-((2-ethyl-5-(6-(2-hydroxy-2-methylpropanoyl)-2,6-diazaspiro[3.3]heptan-2-yl)-6-methylpyrazolo[1,5-a]pyridin-3-yl)(methyl)amino)-4-(4-fluorophenyl)thiazole-5-carbonitrile]
- IC50 [1]: 100 to 500 nM
- IC50 [2]: 100 to 500 nM

Compound: CCc1nn2c(C)cc(N3CC4(CN(C(=O)C5(O)CC5)C4)C3)cc2c1N(C)c1nc(-c2ccc(F)cc2)c(C#N)s1 [Example 61, 2-((2-ethyl-5-(6-(1-hydroxycyclopropane-1-carbonyl)-2,6-diazaspiro[3.3]heptan-2-yl)-7-methylpyrazolo[1,5-a]pyridin-3-yl)(methyl)amino)-4-(4-fluorophenyl)thiazole-5-carbonitrile]
- IC50 [1]: 100 to 500 nM
- IC50 [2]: 100 to 500 nM

Compound: CCc1nn2ccc(N3CCC4(CC3)CN(C(=O)N3CC(O)C3)C4)cc2c1N(C)c1nc(-c2ccc(F)cc2)c(C#N)s1 [Example 12, 2-((2-ethyl-5-(2-(3-hydroxyazetidine-1-carbonyl)-2,7-diazaspiro[3.5]nonan-7-yl)pyrazolo[1,5-a]pyridin-3-yl)(methyl)amino)-4-(4-fluorophenyl)thiazole-5-carbonitrile]
- IC50 [1]: ≤ 100 nM
- IC50 [2]: ≤ 100 nM

Compound: CCc1nn2cc(F)c(N3CC4(CN(C(=O)N5CCOCC5)C4)C3)cc2c1N(C)c1nc(-c2ccc(F)cc2)c(C#N)s1 [Example 108, 2-((2-ethyl-6-fluoro-5-(6-(morpholine-4-carbonyl)-2,6-diazaspiro[3.3]heptan-2-yl)pyrazolo[1,5-a]pyridin-3-yl)(methyl)amino)-4-(4-fluorophenyl)thiazole-5-carbonitrile]
- IC50 [1]: ≤ 100 nM
- IC50 [2]: ≤ 100 nM

Compound: CCc1nn2c(C)cc(N3CC4(CN(C(=O)[C@H]5CCOC5)C4)C3)cc2c1N(C)c1nc(-c2ccc(F)cc2)c(C#N)s1 [Example 39, (S)-2-((2-ethyl-7-methyl-5-(6-(tetrahydrofuran-3-carbonyl)-2,6-diazaspiro[3.3]heptan-2-yl)pyrazolo[1,5-a]pyridin-3-yl)(methyl)amino)-4-(4-fluorophenyl)thiazole-5-carbonitrile]
- IC50 [1]: ≤ 100 nM
- IC50 [2]: ≤ 100 nM

— US10711000B2 (Fronthera U.S. Pharmaceuticals LLC, priority 2018, dated 2020)
